Data published in patent US6989375B2, “Enhanced expression of transgenes” (priority 1996, dated 2006).

Assays:
Assay type in all cases: cell-based, human
[1] = test system: p53 protein in H1299 cells; assay: Western blot analysis of p53 protein expression with densitometry; settings: CDDP = prior CDDP exposure, Adv/CMV/p53 = without prior CDDP
Description: H1299 cells were infected with Ad/CMV/p53 (MOI=1) 48 hrs after CDDP exposure. Cells were then harvested at 6, 12, 24, 36 and 48 hrs after transfection for Western blot analysis of p53 protein expression, as described elsewhere (Diller et al., 1990). Unexposed cells similarly transfected with Ad/CMV/p53 were used as controls. The human NSCLC cell line H322 which overexpresses mutant p53 protein was used as a positive control. Relative quantities of exogenous p53 protein were determined by densitometer (Molecular Dynamics, Sunnyvale, Calif.).

[2] = test system: H1299 cells; assay: Quantitation of β-gal gene expression by ONPG assay at increasing MOI; settings: for Enhancement index: CDDP 0.062 μg/ml×24 h; for β-gal activity (ONPG): CDDP = cells treated 0.062 μg/ml×24 h, infected 2 days later, Ad/CMV/β-gal = control cells without CDDP
Description: (§1) Quantitation of β-gal Gene Expression: Adenoviral infection was performed 2 days after exposure to CDDP (0.062 μg/ml×24 hours), with cell extracts being obtained 24 hours later and quantitatively assayed for the expression of the β-galactosidase gene using O-nitrophenyl β-d-galactoside (ONPG) as a substrate (MacGregor et al., 1987). The magnitude of CDDP-induced enhancement of gene expression at a given MOI was determined by calculating the enhancement index: [formula] In Vivo CDDP-Induced Enhancement of β-gal Gene Expression
(§2) To determine if prior incubation of target cells with CDDP would result in an increase in the ability of cells to take up gene-delivering vectors or an increase in the expression of successfully delivered genes, β-gal gene expression was quantitated in H1299 and H460 cell lines treated with CDDP and then infected with Ad/CMV/β-gal at increasing MOI's. If CDDP mediates an enhancement of adenovirus uptake as compared to non-treated controls, then there should be a proportional increase in enhancement indices with increasing MOI's. […] Similarly, β-gal gene expression in CDDP-treated H460 cells increased from 0.28±0.06 to 12.2±2.1 U/mg protein, as compared to β-gal gene expression in control H460 cells of 0.056±0.016 to 7.6±1.8 U/mg protein. The enhancement indices in H460 cells, therefore, decreased from a value of 5 at an MOI of 5, to a value of 1.6 at an MOI of 100 (FIG. 2B). This observation implies that CDDP induces an increase in the expression of successfully delivered genes and not an increase in adenovirus uptake.

[3] = test system: H460 cells; assay: as above; settings: for β-gal gene expression (ONPG): CDDP = treated cells, Ad/CMV/β-gal = control cells without CDDP
Description: as §1, §2

[4] = test system: H1299 cells; assay: Cell growth after 24-hour incubation with CDDP
[5] = test system: p53 protein in H1299 cells; assay: p53 immunocytochemical staining; settings: 24 hrs after p53 gene transfer (MOI=5); prior CDDP exposure
Description: The infected cells were fixed 3.8% formalin at 12 and 24 hrs after transfection with Adv/CMV/p53 (MOI=5) with or without prior CDDP exposure and treated with 3% H2O2 in methanol for 5 minutes. The Vectastain kit (Vector Laboratories, Burlingana, Calif.) was used for the immunocytochemical staining. The primary antibody used was the mouse monoclonal anti-p53 antibody Pab 1801 (Oncogene Science, Manhasset, N.Y.). The secondary antibody was the biotinylated anti-mouse IgG antibody (Vector Laboratories). The avidin-biotin-peroxidase complex (ABC) kit was used to detect the antigen-antibody complex. The cells were counterstained with Harris Hematoxylin (Sigma, St. Louis, Mo.) and mounted with cover slips using Cytoseal 60.

In the case of `N.N.[Cl][Pt][Cl]` [CDDP, cis-dichlorodimminocisplatin], the “Relative level of p53 protein (normalized for β-actin)” value ([1]; 12 hrs after Adv/CMV/p53 transfection (MOI=1)) is reported as 0.73, the “Relative level of p53 protein (normalized for β-actin)” value ([1]; 24 hrs after Adv/CMV/p53 transfection (MOI=1)) is reported as 1.39 and the “Relative level of p53 protein (normalized for β-actin)” value ([1]; 36 hrs after Adv/CMV/p53 transfection (MOI=1)) is reported as 1.49. The “Relative level of p53 protein (normalized for β-actin)” value ([1]; 48 hrs after Adv/CMV/p53 transfection (MOI=1)) was 1.20, the Enhancement index ([2]; MOI 5) was 3 and the “β-gal activity (ONPG)” value ([2]; MOI 5) was 2.2±0.40 U/mg protein. The Enhancement index ([2]; MOI 100) was 2.5, the “β-gal activity (ONPG)” value ([2]; MOI 100) was 42.0±2.6 U/mg protein and the “β-gal gene expression (ONPG)” value ([3]; MOI 5) was 0.28±0.06 U/mg protein. The “β-gal gene expression (ONPG)” value ([3]; MOI 100) was 12.2±2.1 U/mg protein, the Enhancement index ([3]; MOI of 5) was 5 and the Enhancement index ([3]; MOI of 100) was 1.6. For the same compound, the “Cell growth, initial response” value ([4]; CDDP at 1 and 4 μg/ml for 24 hours, cells viable by trypan blue exclusion) was “significant depression of growth to complete inhibition of proliferation”, the “Cell growth compared to control cell populations” value ([4]; CDDP concentrations lower than 0.25 μg/ml) was “remained unchanged” and the p53 immunocytochemical staining [5] was “almost all of the CDDP-treated cells stained positive”.
